Results taken from patent EP1285919A1, “C10 Carbonate substituted taxanes as antitumor agents” (Florida State University Research Foundation, Inc., priority 2001, dated 2003).
Read-outs that look alike come from different tables or passages of the source.

Assays:
HCT116 = assay: In vitro cytotoxicity, cell colony formation assay; type: cell-based; details: read-out: IN VITRO ID 50
Experimental: In Vitro cytotoxicity measured by the cell colony formation assay
Four hundred cells (HCT116) were plated in 60 mm Petri dishes containing 2.7 mL of medium (modified McCoy's 5a medium containing 10% fetal bovine serum and 100 units/mL penicillin and […] streptomycin). The cells were incubated in a CO2 incubator at 37 °C for 5 h for attachment to the bottom of Petri dishes. The compounds identified in Example 2 were made up fresh in medium at ten times the final concentration, and then 0.3 mL of this stock solution was added to the 2.7 mL of medium in the dish. The cells were then incubated with drugs for 72 h at 37 ° C. At the end of incubation the drug-containing media were decanted, the dishes were rinsed with 4 mL of Hank's Balance Salt Solution (HBSS), 5 mL of fresh medium was added, and the dishes were returned to the incubator for colony formation. The cell colonies were counted using a colony counter after incubation for 7 days.

SK-MES carcinoma = test system: SK-MES carcinoma
Experimental: (§1) In Vivo Evaluation of Antitumor Compounds Against Human Lung Carcinoma Xenografts
(§2) The compounds were prepared in the manner as described for Solution 2 of Example 10. Taxol (paclitaxel, Bristol Meyers Squibb), used as a control, was obtained as the marketed pharmaceutical drug.
(§3) Taxol itself was given as a split i.v. dose of 36 mg/kg, with the two 18 mg/kg doses separated by one hour. Vehicle control animals were dosed twice intravenously with half the total volume being given separated by one hour. The study was terminated on Day 60.
(§4) The results are summarized in Table 1 and include mean days of survival (MDS), number of toxic deaths, number of survivors, number of complete or partial responses, and number with stable disease. The mean days of survival is the number of days after which a SKMES neoplasm reached a size of 1.5 g and the animal was euthanized. A complete response is obtained if the tumor is not palpable at the end of the study. A partial response is obtained if the tumor shrinks to a size smaller than its size on Day 1 of the study.
(§5) A tumor scoring system was designed to provide a more quantitative ranking of efficacy (therapeutic potential) among the antitumor agents evaluated against the different human solid tumor xenografts. Each mouse in a study was given a score of from 1 to 10 at the end of the study. The scores can be summarized as follows:
(§6) The individual score for each mouse was averaged into a mean score for each treatment group. […]

[1] = test system: SKMES Human Lung Carcinoma Xenograft
Experimental: The compound was administered as a single bolus by the oral route in a study to investigate the efficacy of this compound against the SKMES human lung cancer xenograft.
Female Nu/Nu mice (6-8 weeks of age; implanted with 1 mm^3 SKMES lung carcinoma fragments in the flank) were sorted into four treatment groups of six mice each. SKMES size ranges and group mean SKMES size ranges were 126-448 mg and 238-241 mg, respectively. […] Treatments were administered as a single oral bolus on Day 1, and the study was terminated on Day 60.
as §4, with “Table 13” for “Table 1”, “of 2.0” for “of 1.5”
The total response rate was 100% with four complete responses and two partial responses. The total response rate is defined as the percentage of evaluable animals (excluding deaths due to procedure or toxicity) in a group that experience complete or partial responses at the termination of the study.

[2] = test system: NCI-H1299 (H1299) carcinoma
Experimental: as §1, §2, §3, §4, §5, §6
The treatment protocol for the H1299 test was identical to the SK-MES test protocol. […]

[3] = test system: A2780 Human Ovarian Carcinoma Xenografts; assay: In vivo evaluation against A2780 ovarian carcinoma xenografts; parameters: species or system NCr-nude mice
Experimental: In Vivo Evaluation of Antitumor Compounds Against A2780 Human Ovarian Carcinoma Xenografts
The A2780 group mean size range was 237-243 mg. Dosing was initiated on Day 1. […] Treatment groups are detailed in Table 5.

[4] = test system: VM46 Human Colon Carcinoma; assay: In vivo evaluation against VM46 colon carcinoma xenografts; parameters: species or system NCr-nude mice
Experimental: In Vivo Evaluation of Antitumor Compounds Against VM46 Human Colon Carcinoma
The VM46 tumor group mean size range was 181-188 mg. Dosing was initiated on Day 1. […] Taxotere was given i.v. at a dose of 70 mg/kg on a qd x 1 schedule. […] The study was terminated on Day 64. Treatment groups are detailed in Table 11.

[5] = test system: A375 Human Melanoma Xenografts; assay: In vivo evaluation against A375 melanoma xenografts
Experimental: In Vivo Evaluation of Antitumor Compounds Against A375 Human Melanoma Xenografts
Antitumor compounds were prepared in a vehicle of 5% ethanol, 5% Cremophor and 90% isotonic saline in the manner as described for Solution 1 of Example 10. Taxol (paclitaxel; Bristol Meyers Squibb) and Taxotere (docetaxel; Rhône-Poulenc Rorer) were obtained as the marketed pharmaceutical drugs. The dosing volume was 0.3 ml per 20 g mouse.
Female NCr-nude mice were implanted subcutaneously with 1 mm^3 A375 melanoma fragments in the flank were sorted into treatment groups of six mice each, except the Taxotere treatment group which was a group of seven mice. […] Dosing was initiated on Day 1. The antitumor compounds were given i.v. at an estimated maximum tolerated dose (MTD) appropriate for each agent on a qd x 1 schedule (single administration of compound). The i.v. taxol was given on the qd x 1 schedule as two split doses (one hour between) of 12 mg/kg per split dose (total dose = 24 mg/kg). Taxol was also administered i.p. on a qd x 5 schedule at a daily dose of 18 mg/kg. Taxotere was given i.v. on a qd x 1 schedule at a dose of 70 mg/kg. The vehicle was administered i.v. to control mice in Group 1 on the qd x 1 schedule. The study was terminated on Day 60. Treatment groups are detailed in Table 7.
as §4, with “Table 8” for “Table 1”, “a” for “a SKMES”, “of 2.0” for “of 1.5”, “complete” for “complete response is obtained if the tumor is not palpable at the end of the study. A partial”

[6] = number of mice of six, i.v. split dose qd x 1, Taxol 36 mg/kg, 1755 49 mg/kg
[7] = 1755 49 mg/kg single oral bolus, six mice
[8] = Group 4: 49 mg/kg single oral bolus Day 1, 6 mice, study to Day 60
[9] = Group 5: 70 mg/kg i.v. qd x 1, group of six mice, study to Day 60
[10] = i.v. qd x 1, Taxol 24 mg/kg, Taxotere 70 mg/kg
[11] = i.v. qd x 1, Taxol 24 mg/kg, Taxotere 70 mg/kg, 2.0 g cut-off
[12] = Group 5: 70 mg/kg i.v. qd x 1, 6 mice, study to Day 64
[13] = Group 5: 70 mg/kg i.v. qd x 1, 7 mice, study to Day 60

With `CCOC(=O)OC1C(=O)C2(C)C(O)CC3OCC3(OC(C)=O)C2C(OC(=O)c2ccccc2)C2(O)CC(OC(=O)C(O)C(NC(=O)OC(C)(C)C)c3cccs3)C(C)=C1C2(C)C` (centres unmarked) [Compound 1755, 3'-Desphenyl-3'-(2-thienyl)-10-ethoxycarbonyl-10-deacetyl taxotere] the IC50 (HCT116; HCT116, 72 h with drug, colonies counted after 7 days, concentration producing 50% inhibition of colony formation) was less than 1 nM, the tolerability (SK-MES carcinoma; 1755 49 mg/kg i.v.) was “well tolerated” and the “Toxic Deaths” value (SK-MES carcinoma; [6]) was 0. For the same compound, the Survivors (SK-MES carcinoma; number of mice of six, study ended Day 60) was 6, the “Stable Disease” value (SK-MES carcinoma; number of mice of six, tumor below 1.5 g at end of study) was 1 and the “Partial Response” value (SK-MES carcinoma; number of mice of six, tumor smaller than on Day 1) was 0. The “Mean Score” value (SK-MES carcinoma; tumor score 1 to 10 per mouse, averaged per group (10 = complete response)) was 9.2 ± 0.8, the total response rate ([1]; 1755 49 mg/kg single oral bolus Day 1, six mice, study ended Day 60) was 100% and the complete responses [1, 7] was “four”. The partial responses [1, 7] was “two”, the “% Total Response” value [1, 8] was 100% and the “Complete Response” value [1, 8] was 4. The “Partial Response” value [1, 8] was 2, the “Stable Disease” value [1, 8] was 0 and the Survivors [1, 8] was 6. The “Toxic Deaths” value [1, 8] was 0, the “Partial Response” value ([2]; number of mice of six) was 0 and the “Stable Disease” value ([2]; number of mice of six) was 1. The Survivors ([2]; number of mice of six) was 4, the “Toxic Deaths” value [2, 6] was 2 and the “Mean Score” value ([2]; tumor score 1 to 10 per mouse, averaged per group) was 5.8 ± 2.

With `CC(=O)O[C@@]12CO[C@@H]1C[C@H](O)[C@@]1(C)C(=O)[C@H](O)C3=C(C)[C@@H](OC(=O)[C@H](O)[C@@H](NC(=O)OC(C)(C)C)c4ccccc4)C[C@@](O)([C@@H](OC(=O)c4ccccc4)[C@H]21)C3(C)C` [Docetaxel, docetaxel] the IC50 (HCT116; Homo sapiens, HCT-116) was 0.6 nM, the “MDS (n)” value ([3]; Group 5: 70 mg/kg i.v. qd x 1, group of six mice, n=5, 2.0 g endpoint, study to Day 60) was 27.4 ± 3.5 (5) days and the “Complete Response” value [3, 9] was 0. The “Mean Score” value [3, 9] was 2.5 ± 0.3, the “Partial Response” value [3, 9] was 0 and the “Stable Disease” value [3, 9] was 0. For the same compound, the Survivors [3, 9] was 0, the “Toxic Deaths” value [3, 9] was 0 and the “increase in survival / survival extension compared to Group 1 controls” value [3, 10] was 134%. For the same compound, the MDS [3, 11] was 27.4 days, the “MDS (n)” value ([4]; Group 5: 70 mg/kg i.v. qd x 1, 6 mice, n=6, 1.5 g endpoint, study to Day 64) was 45.3 ± 3.6(6) days and the “Complete Response” value [4, 12] was 0. For the same compound, the “Mean Score” value [4, 12] was 2 ± 0, the “Partial Response” value [4, 12] was 0 and the “Stable Disease” value [4, 12] was 0. The “Toxic Deaths” value [4, 12] was 0, the MDS ([4]; i.v. qd x 1, Taxol 24 mg/kg (four mice), Taxotere 70 mg/kg, 1.5 g endpoint) was 45.3 days and the “MDS (n)” value ([5]; Group 5: 70 mg/kg i.v. qd x 1, 7 mice, n=7, 2.0 g endpoint, study to Day 60) was 21.5 ± 0.5(7) days. For the same compound, the “Complete Response” value [5, 13] was 0, the “Mean Score” value [5, 13] was 2 ± 0 and the “Partial Response” value [5, 13] was 0. The “Stable Disease” value [5, 13] was 0, the Survivors [5, 13] was 0 and the “Toxic Deaths” value [5, 13] was 0. For the same compound, the “survival extension compared to Group 1 controls” value [5, 10] was 49% and the MDS [5, 11] was 21.5 days.
